Results: patent US6723512B2, “METHODS USING GENETIC PACKAGE DISPLAY FOR DETECTING AND IDENTIFYING PROTEIN-PROTEIN INTERACTIONS THAT FACILITATE INTERNALIZATION AND TRANSGENE EXPRESSION AND CELLS OR TISSUES COMPETENT FOR THE SAME AND METHODS FOR EVOLVING GENE DELIVERY VECTORS” (priority 1997, dated 2004)

Assays:
COS cells [1] = test: Enhancement of EGF-phage transduction by heat shock and/or camptothecin; format: cell-based
Experimental: The effects of heat shock and another genotoxic treatment, camptothecin were tested. Camptothecin is a type I topoisomerase inhibiter that produces DNA strand breaks. Camptothecin is found to enhance transduction efficiency up to 2 fold at 0.1 μM but was inhibitory at higher concentrations (data not shown). EGF displaying phage (MG4-EGF vector) were incubated with COS cells for 24 hours at which time the cells were either not further treated, subjected to a four hour heat shock (42.5° C.), or treated with 0.1 μM camptothecin for four hours. GFP autofluorescent cells were counted at 72 hours after addition of phage.

COS cells [2] = test: Transduction of COS cells by peptide display phage (second generation screen); format: cell-based; details: overnight incubation, GFP cells at 72 hours, FL5 versus FN5A or FN5B, FIG. 5
Experimental: Oligonucleotides encoding the 3 peptides are inserted into the MEGFP vector as fusions to the pIII coat protein. The resulting phage are used to transfect COS cells. Phage are added to cells and incubated overnight at 37° C. in medium with 10% fetal calf serum. The cells are washed to remove unbound phage and returned to the incubator. Transduction is assessed by counting GFP expressing autofluorescent cells at 72 hours after the addition of phage.

CC[C@@]1(O)C(=O)OCc2c1cc1n(c2=O)Cc2cc3ccccc3nc2-1 [Camptothecin]
enhancement of targeted phage mediated transduction by camptothecin (COS cells [1]; EGF phage 24 hours, then 0.1 μM camptothecin four hours, GFP cells at 72 hours, FIG. 14): ~2 fold | effect of combined heat shock and camptothecin over either treatment alone (COS cells [1]; FIG. 14): modest synergistic increase | enhancement of transduction efficiency (COS cells [1]; camptothecin 0.1 μM, data not shown): up to 2 fold | effect on transduction at higher concentrations (COS cells [1]; concentrations higher than 0.1 μM, data not shown): inhibitory

FVPDPYRKSR [FL5]
transduction efficiency compared among peptide display phage (COS cells [2]): greater transduction efficiency
